The subject of data set [1] is OCI-Ly10. Briefly: Growth inhibition of human OCILY10 cells at 1.7 uM incubated for 3 days (reference value: -2%). The class given is functional. The conditions noted are these: OCI-Ly10, 72 h, time 3 day, read-out: GI.
Data set [2] relates to SUD4. As to the kind of experiment: Growth inhibition of human SU-DHL-4 cells at 0.17 uM incubated for 3 days (reference value: -1%). Particulars: SU-DHL-4, 72 h, time 3 day, read-out: GI. The class given is functional.
The subject of data set [3] is OCI-Ly10. As to the kind of experiment: Growth inhibition of human OCILY10 cells at 0.33 uM incubated for 3 days (reference value: -2%). Particulars: OCI-Ly10, 72 h, time 3 day, read-out: GI. The class given is functional.
The subject of data set [4] is OCI-Ly10. As to the kind of experiment: Growth inhibition of human OCILY10 cells at 0.17 uM incubated for 3 days (Rvb= -2%). The class given is functional. Particulars: OCI-Ly10, 72 h, time 3 day, read-out: GI.
Data set [5] has as its system OCI-Ly10. Briefly: Growth inhibition of human OCILY10 cells at 3.3 uM incubated for 3 days (reference value: -2%). The conditions noted are these: OCI-Ly10, 72 h, time 3 day, read-out: GI. The class given is functional.
Data set [6] concerns SUD4. As to the kind of experiment: Growth inhibition of human SU-DHL-4 cells at 1.7 uM incubated for 3 days (reference value: -1%). The class given is functional. The conditions noted are these: SU-DHL-4, 72 h, time 3 day, read-out: GI.
The test system of data set [7] is SUD4. Briefly: Growth inhibition of human SU-DHL-4 cells at 0.33 uM incubated for 3 days (reference value: 2%). The conditions noted are these: SU-DHL-4, 72 h, time 3 day, read-out: GI. The class given is functional.
For data set [8], the system named is OCI-Ly10. Briefly: Growth inhibition of human OCILY10 cells at 10 uM incubated for 3 days (Rvb= -3%). The conditions noted are these: OCI-Ly10, 72 h, time 3 day, read-out: GI. The class given is functional.
Data set [9] is described as follows: Oral bioavailability in rat at 1 mg/kg. The class given is ADME, organism-based. The conditions noted are these: in vivo.
For data set [10], the target named is T1, Receptor-type tyrosine-protein kinase FLT3 (Homo sapiens, UniProt P36888).
T1 sequence (P36888 whole entry): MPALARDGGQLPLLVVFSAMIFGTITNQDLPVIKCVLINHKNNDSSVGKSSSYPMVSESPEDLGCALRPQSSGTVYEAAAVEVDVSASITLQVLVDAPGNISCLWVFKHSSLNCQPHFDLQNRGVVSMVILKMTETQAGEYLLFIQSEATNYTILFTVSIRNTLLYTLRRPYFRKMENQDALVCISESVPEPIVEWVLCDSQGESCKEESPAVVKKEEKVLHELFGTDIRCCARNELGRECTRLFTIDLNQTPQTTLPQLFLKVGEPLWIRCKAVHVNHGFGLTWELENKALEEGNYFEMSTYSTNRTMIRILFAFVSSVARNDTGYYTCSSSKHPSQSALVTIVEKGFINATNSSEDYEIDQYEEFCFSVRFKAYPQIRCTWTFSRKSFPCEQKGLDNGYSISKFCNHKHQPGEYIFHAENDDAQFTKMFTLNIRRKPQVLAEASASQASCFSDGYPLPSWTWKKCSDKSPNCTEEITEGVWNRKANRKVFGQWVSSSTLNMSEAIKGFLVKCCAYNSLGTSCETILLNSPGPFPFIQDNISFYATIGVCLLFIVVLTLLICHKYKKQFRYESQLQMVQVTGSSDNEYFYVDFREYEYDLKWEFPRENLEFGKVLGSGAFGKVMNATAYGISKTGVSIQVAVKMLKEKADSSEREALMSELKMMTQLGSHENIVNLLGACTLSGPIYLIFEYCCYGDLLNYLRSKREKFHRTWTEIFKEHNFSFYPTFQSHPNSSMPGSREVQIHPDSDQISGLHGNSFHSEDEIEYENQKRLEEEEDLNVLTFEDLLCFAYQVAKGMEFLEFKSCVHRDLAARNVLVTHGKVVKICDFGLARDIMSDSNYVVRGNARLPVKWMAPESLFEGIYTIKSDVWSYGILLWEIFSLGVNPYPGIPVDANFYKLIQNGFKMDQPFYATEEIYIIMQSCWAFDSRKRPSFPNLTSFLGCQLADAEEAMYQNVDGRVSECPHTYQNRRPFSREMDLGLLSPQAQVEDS
As to the kind of experiment: Inhibition of FLT3 (unknown origin) in presence of 600 uM ATP.

For data set [11], the target named is T2, Interleukin-1 receptor-associated kinase 4 (Homo sapiens, UniProt Q9NWZ3).
T2 sequence (Q9NWZ3 whole entry): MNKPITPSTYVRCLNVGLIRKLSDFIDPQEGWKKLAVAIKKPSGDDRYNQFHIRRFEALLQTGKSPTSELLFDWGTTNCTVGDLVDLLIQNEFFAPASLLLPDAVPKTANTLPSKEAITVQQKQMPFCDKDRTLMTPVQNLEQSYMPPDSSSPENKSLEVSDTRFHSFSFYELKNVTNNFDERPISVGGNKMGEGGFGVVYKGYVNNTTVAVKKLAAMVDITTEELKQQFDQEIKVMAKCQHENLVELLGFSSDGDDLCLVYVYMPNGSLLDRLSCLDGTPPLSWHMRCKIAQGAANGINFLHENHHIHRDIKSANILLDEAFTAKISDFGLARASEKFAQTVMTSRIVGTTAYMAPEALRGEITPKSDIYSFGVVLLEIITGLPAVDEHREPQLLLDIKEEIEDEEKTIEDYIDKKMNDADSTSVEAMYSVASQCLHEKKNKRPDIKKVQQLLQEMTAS
Briefly: Inhibition of IRAK4 (unknown origin) in presence of ATP by enzymatic assay.

In data set [12] the test system is SUD4. As to the kind of experiment: Growth inhibition of human SU-DHL-4 cells at 0.17 uM incubated for 3 days (reference value: 2%). The class given is functional. The conditions noted are these: SU-DHL-4, 72 h, time 3 day, read-out: GI.
The test system of data set [13] is OCI-Ly10. As to the kind of experiment: Growth inhibition of human OCILY10 cells at 0.17 uM incubated for 3 days (Rvb= -3%). The class given is functional. The conditions noted are these: OCI-Ly10, 72 h, time 3 day, read-out: GI.
The subject of data set [14] is OCI-Ly10. As to the kind of experiment: Growth inhibition of human OCILY10 cells at 1.7 uM incubated for 3 days (Rvb= -3%). The class given is functional. The conditions noted are these: OCI-Ly10, 72 h, time 3 day, read-out: GI.
Data set [15] has as its system SUD4. Briefly: Growth inhibition of human SU-DHL-4 cells at 1.7 uM incubated for 3 days (reference value: 2%). The class given is functional. Particulars: SU-DHL-4, 72 h, time 3 day, read-out: GI.
For data set [16], the target named is Interleukin-1 receptor-associated kinase 1 (Homo sapiens, UniProt P51617). Briefly: Inhibition of IRAK1 (unknown origin) in presence of 25 uM ATP.
Data set [17] relates to OCI-Ly10. Briefly: Growth inhibition of human OCILY10 cells at 0.33 uM incubated for 3 days (Rvb= -3%). The class given is functional. Particulars: OCI-Ly10, 72 h, time 3 day, read-out: GI.
The nature of data set [18]: Lipophilicity, LogD at pH 7.4 of the compound by shake flask method. The class given is physicochemical. The conditions noted are these: buffer.
Data set [19] concerns OCI-Ly10. As to the kind of experiment: Growth inhibition of human OCILY10 cells at 3.3 uM incubated for 3 days (Rvb= -3%). The class given is functional. Particulars: OCI-Ly10, 72 h, time 3 day, read-out: GI.
Data set [20] can be described thus: Metabolic stability in human liver microsomes assessed as intrinsic clearance. The class given is ADME, Microsome. Particulars: read-out: CLH. Background: Liver microsomes are vesicles of endoplasmic reticulum, rich in cytochrome P450 enzymes.
Data set [21] in a line: Metabolic stability in minipig liver microsomes assessed as intrinsic clearance. The class given is ADME, Sus scrofa domesticus, Microsome. Particulars: pig, read-out: CLH.
Data set [22] is described as follows: Plasma protein binding in mouse assessed as free fraction by equilibrium dialysis analysis. The class given is ADME, cell-free. A general note: In equilibrium dialysis free small molecules cross a membrane that holds back macromolecules.
Data set [23] in a line: Metabolic stability in dog liver microsomes assessed as intrinsic clearance. The class given is ADME, Canis lupus familiaris, Microsome. The conditions noted are these: read-out: CLH.
Data set [24] in a line: Metabolic stability in mouse hepatocytes assessed as intrinsic clearance measured per 10^6 cells. The class given is ADME, cell-based, Hepatocyte. Particulars: read-out: CLH.
Data set [25] is described as follows: Metabolic stability in human cytosol assessed as intrinsic clearance. The class given is ADME, subcellular.
Data set [26] in a line: Metabolic stability in human hepatocytes assessed as half life. The class given is ADME, cell-based, Hepatocyte.
Data set [27] can be described thus: Terminal half life in cynomolgus monkey at 1 mg/kg, iv. The class given is ADME, organism-based, Macaca fascicularis. The conditions noted are these: in vivo, read-out: beta t1/2 (converted).
A short description of data set [28]: Terminal half life in CD1 mouse at 0.5 mg/kg, iv. The class given is ADME, organism-based. The conditions noted are these: in vivo, read-out: beta t1/2 (converted).
Data set [29] in a line: Metabolic stability in human liver microsomes assessed as half life. The class given is ADME, Microsome.
A short description of data set [30]: Plasma protein binding in rat assessed as free fraction by equilibrium dialysis analysis. The class given is ADME, cell-free.
A short description of data set [31]: Metabolic stability in minipig hepatocytes assessed as intrinsic clearance measured per 10^6 cells. The conditions noted are these: pig, read-out: CLH. The class given is ADME, cell-based, Sus scrofa domesticus, Hepatocyte.

The record followed here is ChEMBL document CHEMBL5244269, “Improving metabolic stability and removing aldehyde oxidase liability in a 5-azaquinazoline series of IRAK4 inhibitors” (Bioorg Med Chem, 2020).

pIC50: −log10 of the molar value.

Sequence of Interleukin-1 receptor-associated kinase 1 (P51617 whole entry): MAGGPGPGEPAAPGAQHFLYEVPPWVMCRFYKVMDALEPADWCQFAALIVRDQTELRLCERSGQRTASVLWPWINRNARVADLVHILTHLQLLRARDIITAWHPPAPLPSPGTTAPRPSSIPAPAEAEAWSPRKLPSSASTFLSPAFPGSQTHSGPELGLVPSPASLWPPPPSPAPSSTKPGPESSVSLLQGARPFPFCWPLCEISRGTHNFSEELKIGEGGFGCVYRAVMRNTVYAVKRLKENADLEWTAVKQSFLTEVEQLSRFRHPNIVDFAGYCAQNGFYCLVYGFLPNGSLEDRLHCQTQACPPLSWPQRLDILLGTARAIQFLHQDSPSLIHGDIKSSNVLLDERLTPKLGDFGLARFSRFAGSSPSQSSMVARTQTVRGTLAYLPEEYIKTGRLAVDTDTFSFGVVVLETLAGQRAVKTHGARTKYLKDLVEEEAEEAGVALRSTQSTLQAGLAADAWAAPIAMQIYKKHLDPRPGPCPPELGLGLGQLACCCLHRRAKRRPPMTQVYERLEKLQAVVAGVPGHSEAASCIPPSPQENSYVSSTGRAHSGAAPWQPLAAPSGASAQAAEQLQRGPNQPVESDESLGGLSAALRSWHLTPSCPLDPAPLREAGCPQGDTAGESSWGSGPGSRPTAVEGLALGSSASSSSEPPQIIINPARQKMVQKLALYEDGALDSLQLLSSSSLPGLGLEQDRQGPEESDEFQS

Turning to `CC[C@@H]1[C@H](F)C(=O)N[C@@H]1COc1nccc2cc(C(N)=O)c(OC)cc12` [ZIMLOVISERTIB], the inhibition of growth at 1.7 µM in the data set with OCI-Ly10 [1] is 10%; in the data set on SUD4 [6], 1%. Besides, the inhibition of growth at 0.17 µM worked out at 1% in the data set on SUD4 [2] and 5% in the data set with OCI-Ly10 [4]. In addition, the inhibition of growth at 0.33 µM in the data set on OCI-Ly10 [3] was 5%. For the same compound, the inhibition of growth at 3.3 µM in the data set on OCI-Ly10 [5] turned out to be 20%.
As a reminder, the bioavailability is the share of a dose that reaches the circulation, judged against a reference dose that is usually intravenous. Broadly, the pIC50 is the IC50 on a negative log10 scale, so that one unit is a factor of ten. As a reminder, the logD is the decadic logarithm of the distribution of all forms, ionised or not, between an organic phase and buffer at a given pH. Regarding `Cc1ncc(-c2nc3c(NC(C)C)nc(Nc4cnn(C5CC6(C5)CN(C)C6)c4)nc3cc2F)cn1`, the results for the inhibition of growth at 0.33 µM in the data set on SUD4 [7] and in the data set on OCI-Ly10 [17] were 3% and 35%, respectively. The inhibition of growth at 10 µM in the data set on OCI-Ly10 [8] is 157%. The compound further had a bioavailability in data set [9] of at most 10%. Also, the pIC50 in data set [10] is 5.82; in data set [11], 8.70; in data set [16], 5.92. Moreover, the inhibition of growth at 0.17 µM worked out at 2% in the data set with SUD4 [12] and 5% with OCI-Ly10 [13]. Moreover, the figures for the inhibition of growth at 1.7 µM in the data set with OCI-Ly10 [14] and with SUD4 [15] were 75% and 3%, respectively. In addition, in data set [18], the logD amounted to 1.9. For the same compound, in the data set on OCI-Ly10 [19], the inhibition of growth at 3.3 µM was 105%. In [20], the microsomal CLint is below 3 µL/min/mg.
As a reminder, the fraction unbound is the share of the substance not bound to proteins or other matrix. As for `Cc1ncc(-c2nc3c(OC4(C)CC4)nc(Nc4cnn(C5CCN(C)CC5)c4)nc3cc2F)cn1`, the microsomal CLint in data set [21] is 18 µL/min/mg; in [23], 21 µL/min/mg; in data set [25] it was below 0.5 µL/min/mg; in data set [20], 58 µL/min/mg. For the same compound, the inhibition of growth at 10 µM with OCI-Ly10 [8] was determined as 148%. The figures for the fraction unbound in data set [22] and in [30] were 0.16 and 0.21, respectively. For the same compound, the inhibition of growth at 0.17 µM with SUD4 [2] was -2%; with OCI-Ly10 [13], 1%. The results for the pIC50 in data set [10], in data set [11] and in data set [16] were below 5.05, 8.52 and 5.85, respectively. Further, the figures for the hepatocyte CLint in data set [24] and in data set [31] were 11 µL/min/1e6 cells and 8.2 µL/min/1e6 cells, respectively. Further, the inhibition of growth at 1.7 µM was 44% with OCI-Ly10 [14] and -2% in the data set with SUD4 [6]. In addition, in the data set on OCI-Ly10 [17], the inhibition of growth at 0.33 µM was found to be 8%. The half-life in data set [26] was 30 h; in [27], 1.4 h; in data set [28] it was 4.2 h; in data set [29], 3 h. In addition, the logD in data set [18] is 2.6. Further, the inhibition of growth at 3.3 µM in the data set with OCI-Ly10 [19] was found to be 76%.
